The text below walks through data of patent US20140004209A1, “AUTOPHAGY INDUCER AND INHIBITOR COMBINATION THERAPY FOR THE TREATMENT OF NEOPLASMS” (GENENTECH, INC., priority 2010, published 2014).

Assay [1] concerns PC3 cells. Briefly: Autophagy markers in PC3 cells (EM AVs, GFP-LC3, LC3-II/LC3-I, MDC, AO). Type of assay: cell-based, human. On the procedure:
Western blot analysis, immunofluorescence, 1HC and TUNEL assay: For Western blot analysis, total protein lysates were subjected to SDS-PAGE and transferred to nitrocellulose. […] Detection and quantification were performed using an Odyssey infrared scanner (LICOR) using the manufacturer's software. For immunofluorescence staining, cells were fixed in 3% paraformaldehyde and permeabilized with 0.01% digitonin in PBS, followed by a rabbit polyclonal anti-LC3 (Abgent) primary antibody detected with a cy3-conjugated anti-rabbit secondary antibody (Jackson Immunoresearch). For IHC, formalin-fixed, paraffin-embedded specimens were collected. 5-μm-thick paraffin-embedded sections were stained using an anti-Ki-67 (MIB-1, DakoCytomation) antibody with the Dako ARK kit (Dako Corporation). Tissues were counterstained with haematoxylin, dehydrated, and mounted. In all cases, antigen retrieval was performed with the Dako Target Retrieval Kit as per manufacturer's instructions. For TUNEL assay, formalin-fixed, paraffin-embedded sections were stained using an in situ cell death detection kit (POD; Roche Diagnostic) according to the manufacturer's instructions.
Ultrathin sections were stained with uranyl acetate and lead citrate. Numbers of AV were counted on systematically sampled cytoplasmic areas of 4.5 μm^2 (n≧64 per condition). The percent AV area was measured by means of a square mesh grid laid over ≧5 sets of systematically sampled micrographs with each set covering a cytoplasmic area ≧80 μm^2. The average percent of apoptotic nuclei in tumor tissues was calculated from the number of apoptotic nuclei in 3 to 4 sets of 100 systematically counted tumor cell nuclei.
Multispectral imaging flow cytometry: Cells treated with various agents were stained with Acridine Orange and analyzed by the ImageStream system (Amnis Corporation, Seattle, Wash.) using the IDEAS image analysis program. The DNA AOGreen image and the vacuolar AO Red image were first compensated into separate channels, and then the percentage of apoptotic/anucleate cells (based on AO nuclear morphology and intensity) and vacuolated cells (AO Red+) were quantified. […] AORed Intensity is plotted on the second histogram with an arbitrary gate (R5) drawn to include events with the brightest AO Red intensity.

In assay [2] the test system is PC3 cells. Briefly: PC3 cell viability and cell death (PI exclusion, annexin V, caspase-3/7). Type of assay: cell-based, human. As to the method:
Cell viability and cell cycle analysis. Cell number and viability was measured using trypan blue exclusion assay using a Vi-Cell Analyzer (Beckman Coulter), or labeled with 1 μg/ml PI in PBS/1% BSA followed by cytofluorometric analysis with a fluorescence-activated cell sorter (FACS) (Becton Dickinson). FITC-conjugated Annexin V was used for the assessment of phosphatidylserine exposure by FACS analysis. Caspase activation was analyzed using a Caspase-Glo 3/7 Assay kit (Promega). For cell cycle analysis, cells were fixed with drop-wise addition of chilled 70% ethanol, washed with PBS and resuspended in staining solution containing 50 μg/ml PI and 60 units of RNAse A. DNA content was analyzed by flow cytometry using the FlowJo and ModFit software (Becton Dickinson).

The next assay concerns Akt. Briefly: Immunoblot of Akt and S6 phosphorylation in PC3 cells. Type of assay: cell-based, human. The settings on record: 5 mM NAC. The text has this: (§1) Western blot analysis, immunofluorescence, 1HC and TUNEL assay: For Western blot analysis, total protein lysates were subjected to SDS-PAGE and transferred to nitrocellulose. Antibodies used were: anti-Akt1, anti-Akt2, anti-Akt3, anti-total-Akt, anti-p-Akt (Ser473), anti-p-Akt (Thr308), anti-p-S6 (Ser235/236), anti-PARP and anti-cleaved caspase-3 (Cell Signaling Technology); anti-p-PRAS40 (Invitrogen); anti-p27^Kip1 (Santa Cruz Biotechnology); anti-LC3 (Novus); anti-LAMP2 and anti-Cathepsin D (BD Biosciences); and anti-GAPDH (Advanced Immunochemical Inc.). Primary antibodies were detected using IR Dye 800-conjugated (Rockland) and Alexa-Fluoro 680-conjugated (Molecular Probes) species-selective secondary antibodies. Detection and quantification were performed using an Odyssey infrared scanner (LICOR) using the manufacturer's software. For immunofluorescence staining, cells were fixed in 3% paraformaldehyde and permeabilized with 0.01% digitonin in PBS, followed by a rabbit polyclonal anti-LC3 (Abgent) primary antibody detected with a cy3-conjugated anti-rabbit secondary antibody (Jackson Immunoresearch). For IHC, formalin-fixed, paraffin-embedded specimens were collected. 5-μm-thick paraffin-embedded sections were stained using an anti-Ki-67 (MIB-1, DakoCytomation) antibody with the Dako ARK kit (Dako Corporation). Tissues were counterstained with haematoxylin, dehydrated, and mounted. In all cases, antigen retrieval was performed with the Dako Target Retrieval Kit as per manufacturer's instructions. For TUNEL assay, formalin-fixed, paraffin-embedded sections were stained using an in situ cell death detection kit (POD; Roche Diagnostic) according to the manufacturer's instructions.

For assay [3], the system named is PC3 cells. Briefly: Mitochondrial superoxide (MitoSOX red) and cellular ROS in PC3 cells. Type of assay: cell-based, human.
Description: (B) PC3 cells treated as in A were stained with the Image-iT LIVE green ROS Detection kit and examined by fluorescence microscopy at 24 h. […] (C) Quantification of MitoSOX red and ROS green fluorescence intensities by flow cytometry at 24 h. Cells were treated as in A and B. Error bars represent SEM (n=3).
Because mitochondria are the primary intracellular source of superoxide (O2^−) generation, we analyzed O2^− production using MitoSOX red, an O2^− indicator that accumulates in the mitochondria as a function of membrane potential and fluoresces upon oxidation and subsequent binding to DNA.
A further assay relates to PC3 xenograft tumors. The assay is described as follows: PC3 xenograft tumor growth. Type of assay: in vivo, mice. As to the method: Xenograft study: Six- to 8-week-old female athymic nude nu/nu mice were purchased from Charles River Laboratories and maintained in Genentech's conventional animal facility. Mice were injected in the right flank with 5˜7.5×10^6 cells resuspended in 200 μl Hank's Balanced Salt Solution (Invitrogen). When tumors reached a mean volume of 100˜300 mm^3 the mice with similarly-sized tumors were grouped into treatment cohorts. […] Amber-colored water bottles were used and were changed 3 times per week. […] Tumors were measured with calipers and mice weighed twice per week. Mice whose tumors reached 2000 mm^3 or lost more than 20% body weight were euthanized. Between 8˜10 mice were used for each treatment group. Statistical significance was analyzed using the JMP software (SAS Institute, Inc.).
We next examined the effect of Akt KDs on the ability of PC3 cells to maintain the growth of established tumors in vivo.

Assay [4] concerns PC3 cells. The assay is described as follows: Time-lapse microscopy of PC3 cells. The settings on record: 10 μM, 5% FBS, 3 d. It is filed as cell-based, human. On the procedure: Time-lapse video microscopy: Cells cultured in 24-well plates were imaged on an Olympus IX81 inverted microscope under environmental control (37° C. and 5% CO2) for 3 days. Imaging started 6 hours after the addition of the compounds and was taken at 1-hour intervals.

The test system of assay [5] is PC3 cells. The assay is described as follows: Immunoblot of LAMP1, cathepsin D and p62 in PC3 cells. Type of assay: cell-based, human.
Excerpt: as §1, with “Primary antibodies were detected using IR Dye 800-conjugated (Rockland) and Alexa-Fluoro 680-conjugated (Molecular Probes) species-selective secondary antibodies.” left out
Because autophagy is a key function of the lysosomal compartment (Terman, A., B. Gustafsson, and U. T. Brunk, (2006), The lysosomal-mitochondrial axis theory of postmitotic aging and cell death. Chem Biol Interact. 163:29-37), we examined the lysosomal marker LAMPI and cathepsin D, the predominant lysosomal aspartic protease, by immunoblotting (FIG. 6, B and C). […] Cathepsin D is synthesized as a 43-kD preprocathepsin D that is cleaved cotranslationally and glycosylated to form a 46-kD procathepsin D, which is targeted to lysosomes yielding an intermediate that is further cleaved into a mature enzyme consisting of a 15-kD light chain and a 28-kD heavy chain.

The test system of assay [6] is PC3 cells. The assay is described as follows: Mitochondrial membrane potential (MitoPT dye) in PC3 cells. It is filed as cell-based, human. The settings on record: 0.5% FBS. As to the method:
FIG. 21. […] Images at 48 h are shown. […] Merged images between red and green channels are also shown (MitoPT-M). Scale bar: 20 μm. (B) Percentage of cells showing red punctate stains and diffuse green stains from treatments described in (A). >86 cells from two random fields of fluorescent images of each treatment were counted. Error bars represent standard deviations between the two fields. […] Total fluorescence intensity from all cells was collected using the Isocyte (Blueshift Biotechnologies), a laser scanning imager. Green fluorescence intensity is collected with a 488 nm laser and a 510-540 nm band pass filter, and normalized to cell number determined by Hoechst staining using a 405 nm laser and a 430-480 nm band pass filter. Error bars, standard deviation between two independent experiments. (D) Representative images of the green ROS signals and bright field (BF) taken under a Nikon TE300 inverted microscope. […] Scale bar: 20 μm.
Cell Culture and Reagents: The PTEN^−/− and PTEN^+/+ MEFs were maintained as previously described (Sun, H., R. Lesche, D. M. Li, J. Liliental, H. Zhang, J. Gao, N. Gavrilova, B. Mueller, X. Liu, and H. Wu, (1999), PTEN modulates cell cycle progression and cell survival by regulating phosphatidylinositol 3,4,5,-trisphosphate and Akt/protein kinase B signaling pathway. Proc Natl Acad Sci USA. 96:6199-204). The PC3 and U87MG cells were maintained at 37° C. and 5% CO2 in DMEM/Ham's F-12 (1:1) containing 10% tetracycline-free fetal bovine serum. II-4 was from Calbiochem (Akt inhibitor VIII) (Barnett, S. F., D. Defeo-Jones, S. Fu, P. J. Hancock, K. M. Haskell, R. E. Jones, J. A. Kahana, A. M. Kral, K. Leander, L. L. Lee, J. Malinowski, E. M. McAvoy, D. D. Nahas, R. G. Robinson, and H. E. Huber, (2005), Identification and characterization of pleckstrin-homology-domain-dependent and isoenzyme-specific Akt inhibitors. Biochem J. 385:399-408). […] Image-iT LIVE Green Reactive Oxygen Species Detection Kit was purchased from Molecular Probes. MitoPT Mitochondria Permeability Transition Detection Kit was purchased from Immunochemistry Technologies, LLC.

Assay [7] can be described thus: Autophagic vacuole accumulation by side scatter (SSC) in a flow cytometer. Type of assay: cell-based. The text has this:
Inhibitors include 3-phenyl-2-(4-((4-(5-(pyridin-2-yl)-1H-1,2,4-triazol-3-yl)piperidin-1-yl)methyl)phenyl)-1,6-naphthyridin-5(6H)-one (II-3), benzyl 2-(4-(3-ethylureido)phenyl)-4-(1,4-oxazepan-4-yl)-5H-pyrrolo[3,4-d]pyrimidine-6(7H)-carboxylate (III-1); 1-ethyl-3-(4-(4-morpholino-7-(pyrimidin-2-yl)-5,6,7,8-tetrahydropyrido[3,4-d]pyrimidin-2-yl)phenyl)urea (III-2), (R)-1-(44(2-(2-aminopyrimidin-5-yl)-7-methyl-4-morpholinothieno[3,2-d]pyrimidin-6-yl)methyl)piperazin-1-yl)-2-hydroxypropan-1-one (III-3), 4-(2-(1H-indazol-4-yl)-6-((4-(methylsulfonyl)piperazin-1-yl)methyl)thieno[3,2-d]pyrimidin-4-yl)morpholine (III-6), (S)—N-(4-(benzo[d][1,3]dioxol-5-yl)thiazol-2-yl)-N-(3-(2-formylpiperidin-1-yl)propyl)thiophene-2-carboxamide (IV-2) and Rapamycin.
FIG. 14 depicts CQ (10 μM) increases the number and size of autophagic vacuoles when combined with the various mTOR, PI3K, and Akt inhibitors.

The nature of assay [8]: Cell death in combination with CQ (FIG. 17). It is filed as cell-based.

Structures are written as SMILES. Entries after “also recorded” stand apart in the source; their conditions may differ.

Take `CC(=O)N[C@@H](CS)C(=O)O` [NAC, N-acetylcysteine]: in the assay with PC3 cells [1] (5 mM NAC), the “effect of NAC on Akti-induced autophagy markers” value was “counteracted all these effects induced by Akti with or without CQ; also recorded: reduced Akti-induced LC3 and GFP-LC3 lipidation, p62 degradation, and GFP-LC3 puncta formation”. In addition, the “rescue of cell death induced by II-4 (Akti) and CQ” value in the assay on PC3 cells [2] was “NAC rescued cell death induced by Akti+CQ; also recorded: rescued cell viability in the presence of II-4 and CQ”. Further, in the assay with Akt, the “effect of NAC on Akti's inhibition of pAkt or pS6” value is on record as “did not affect Akti's ability to inhibit pAkt or pS6”. In addition, in the assay with PC3 cells [3] (5 mM NAC), the “effect of NAC on MitoSOX Red signal” value is listed as “reduced MitoSOX Red signal induced by the various treatments”.

For the compound `CCN(CC)CCCC(C)Nc1ccnc2cc(Cl)ccc12` (stereo not shown) [CQ, chloroquine], in the assay with PC3 xenograft tumors (PC3-shAkt123 xenograft, both Dox and CQ), the “tumors with stasis maintained throughout the study” value stood at 20%. For the same compound, the “tumors with complete regression” value with PC3 xenograft tumors (PC3-shAkt123 xenograft, both Dox and CQ, intraperitoneal) worked out at 40%. The “incidence of complete tumor remission, CQ combined with Akt knockdown” value in the assay with PC3 xenograft tumors (mouse, in vivo) is listed as “significantly increased the incidence of complete tumor remission; also recorded: increased the incidence of complete tumor remissions in vivo”. In the assay on PC3 cells [1], the “AVO accumulation, agent alone (multispectral imaging flow cytometry)” value is “induced AVO accumulation without significant loss of viability” and the “induction of AV accumulation / autophagy, agent alone” value is listed as “induced accumulation of AVs”. Besides, in the assay with PC3 cells [4], the “cell division and morphology, agent alone” value was “mild decrease in cell division and a gradual accumulation of dark particles in the perinuclear region”. In addition, the p62 level entry in the assay with PC3 cells [5] is “increased the level of p62 both with and without Akti; also recorded: blocked p62 degradation both with and without II-4 treatment”. Moreover, the “mitochondrial membrane potential, agent alone” value in the assay with PC3 cells [6] is “did not have a significant effect”. In addition, in the assay with PC3 cells [3], the “MitoSOX fluorescence, agent alone” value was “mild increase in MitoSOX signal” and the “cellular ROS signal, agent alone” value is recorded as “little effect on ROS levels”.

With `CS(=O)(=O)N1CCN(Cc2cc3nc(-c4cccc5[nH]ncc45)nc(N4CCOCC4)c3s2)CC1` [III-6, 4-(2-(1H-indazol-4-yl)-6-((4-(methylsulfonyl)piperazin-1-yl)methyl)thieno[3,2-d]pyrimidin-4-yl)morpholine], the “autophagic vacuole accumulation (SSC), inhibitor alone” value in assay [7] is “induce increased autophagic vacuole accumulation”. The “interaction with CQ on cell death” value in [8] is reported as “synergize with CQ to accelerate cell death”.
